Measurements as given in patent US6569842B2 (Board of Trustees of the University of Illinois, The, priority 2000, dated 2003).
Converted amounts (≈) assume the structure as drawn.

Tests used:
BC-1 (breast) = test: Cytotoxicity against cultured BC-1 cells (SRB); type: cell-based, human; conditions: Method A, sample dissolved in DMSO, three days incubation; for IC50: Homo sapiens, BC1, 72 h, read-out: ED50 BC-1
Method: (§1) Cytotoxicity of the crude extracts and purified compounds was determined in a number of cultured human cancer cell lines. Table 1 sets forth the various types of cancer cells evaluated using Method A. The cells were cultured in appropriate media and under standard conditions. To maintain logarithmic growth, the media were changed 24 hours prior to cytotoxic assays. On the day of the assay, the cells were harvested by trypsinization, counted, diluted in media, and added to 96-well plates containing test compounds dissolved in DMSO. The final DMSO concentration was 0.05%.
In each of Methods A-C, the plates were incubated for three days. Following the incubation period, the cells were fixed and stained with sulforhodamine B (SRB) dye. The bound dye was liberated with Tris base, and the OD515 (optical density at 515 nm) was measured on an ELISA reader. […] Dose response studies were performed to generate ED50 values. As used herein, the term OD515 is defined as optical density at 515 nm, and the term ED50 is defined as the concentration of a compound required to reduce cell number by 50%.

COL-2 (colon) = test: Cytotoxicity against cultured COL-2 cells (SRB); type: cell-based, human; conditions: Method A, sample dissolved in DMSO, three days incubation; for IC50: Homo sapiens, Col2, 72 h, read-out: ED50 COL-2
Method: as §1
(§2) In each of Methods A-C, the plates were incubated for three days. Following the incubation period, the cells were fixed and stained with sulforhodamine B (SRB) dye. The bound dye was liberated with Tris base, and the OD515 (optical density at 515 nm) was measured on an ELISA reader. The growth of the betulinic acid-treated cells was determined by the OD515 values, and the growth was compared to the OD515 values of […] control cells of Methods A-C. Dose response studies were performed to generate ED50 values. As used herein, the term OD515 is defined as optical density at 515 nm, and the term ED50 is defined as the concentration of a compound required to reduce cell number by 50%.

[1] = test system: KB (human oral epidermoid carcinoma); test: Cytotoxicity against cultured KB cells (SRB); type: cell-based; conditions: Method A, sample dissolved in DMSO; three days incubation
Method: as §1, §2

LNCaP (prostate) = test: Cytotoxicity against cultured LNCaP cells (SRB); type: cell-based, human; conditions: Method A, sample dissolved in DMSO; three days incubation
Method: as §1, §2

MEL-2 (melanoma) = test: Cytotoxicity against cultured MEL-2 cells (SRB); type: cell-based, human; conditions: Method A, sample dissolved in DMSO, three days incubation; for IC50: Homo sapiens, MEL2, 72 h, read-out: ED50 MEL-2
Method: as §1, §2

U373 (glioma) = test: Cytotoxicity against cultured U373 cells (SRB); type: cell-based, human; conditions: Method A, sample dissolved in DMSO; three days incubation
Method: as §1, §2

ZR-75-1 (breast) = test: Cytotoxicity against cultured ZR-75-1 cells (SRB); type: cell-based, human; conditions: Method A, sample dissolved in DMSO, three days incubation; for IC50: Homo sapiens, ZR-75-1, 72 h, read-out: ED50 ZR 75-1
Method: as §1, §2

A431 (squamous cells) = test: Cytotoxicity against cultured A431 cells (SRB); type: cell-based, human; conditions: Method A, sample dissolved in DMSO; three days incubation
Method: as §1, §2

HT-1080 (sarcoma) = test: Cytotoxicity against cultured HT-1080 cells (SRB); type: cell-based, human; conditions: Method A, sample dissolved in DMSO, three days incubation; for IC50: Homo sapiens, HT-1080, 72 h, read-out: ED50 HT-1080
Method: as §1, §2

LU-1 (lung) = test: Cytotoxicity against cultured LU-1 cells (SRB); type: cell-based, human; conditions: Method A, sample dissolved in DMSO, three days incubation; for IC50: Homo sapiens, Lu1, 72 h, read-out: ED50 LU-1
Method: as §1, §2

a variety of tumors = conditions: Phase II trials in Japan; cited from earlier work

| Compound | IC50 (BC-1 (breast)) | IC50 (COL-2 (colon)) | ED50 KB [1] | ED50 LNCaP (LNCaP (prostate)) | IC50 (MEL-2 (melanoma)) | ED50 U373 (U373 (glioma)) | IC50 (ZR-75-1 (breast)) | ED50 A431 (A431 (squamous cells)) | IC50 (HT-1080 (sarcoma)) | IC50 (LU-1 (lung)) | response rate, lymphoma (a variety of tumors) | response rate, small cell lung (a variety of tumors) | ED50 BC-1 (BC-1 (breast)) | ED50 COL-2 (COL-2 (colon)) | ED50 HT-1080 (HT-1080 (sarcoma)) | ED50 LU-1 (LU-1 (lung)) | ED50 MEL-2 (MEL-2 (melanoma)) | ED50 ZR 75-1 (ZR-75-1 (breast)) |
| --- | --- | --- | --- | --- | --- | --- | --- | --- | --- | --- | --- | --- | --- | --- | --- | --- | --- | --- |
| CC(=O)O[C@H]1C(=O)[C@@]2(C)[C@H]([C@H](OC(=O)c3ccccc3)[C@]3(O)C[C@H](OC(=O)[C@H](O)[C@@H](NC(=O)c4ccccc4)c4ccccc4)C(C)=C1C3(C)C)[C@]1(OC(C)=O)CO[C@@H]1C[C@@H]2O [Taxol, paclitaxel] | 0.02 µg/mL (≈ 0.0234 µM) | 0.02 µg/mL (≈ 0.0234 µM) | 0.02 µg/mL (≈ 0.0234 µM) | 0.02 µg/mL (≈ 0.0234 µM) | 0.06 µg/mL (≈ 0.0703 µM) | 0.008 µg/mL (≈ 0.00937 µM) | 0.02 µg/mL (≈ 0.0234 µM) | – | – | – | – | – | – | – | – | – | – | – |
| CC[C@]1(O)C[C@@H]2CN(CCc3c([nH]c4ccccc34)[C@@](C(=O)OC)(c3cc4c(cc3OC)N(C)[C@H]3[C@@](O)(C(=O)OC)[C@H](OC(C)=O)[C@]5(CC)C=CCN6CC[C@]43[C@@H]65)C2)C1 [Vinblastine] | 0.06 µg/mL (≈ 0.074 µM) | 0.01 µg/mL (≈ 0.0123 µM) | 0.04 µg/mL (≈ 0.0493 µM) | 0.1 µg/mL (≈ 0.123 µM) | 0.01 µg/mL (≈ 0.0123 µM) | 1.1 µg/mL (≈ 1.36 µM) | 0.3 µg/mL (≈ 0.37 µM) | 0.05 µg/mL (≈ 0.0617 µM) | 0.02 µg/mL (≈ 0.0247 µM) | 0.02 µg/mL (≈ 0.0247 µM) | – | – | – | – | – | – | – | – |
| CC[C@]1(O)C[C@H]2CN(CCc3c([nH]c4ccccc34)[C@@](C(=O)OC)(c3cc4c(cc3OC)N(C=O)[C@H]3[C@@](O)(C(=O)OC)[C@H](OC(C)=O)[C@]5(CC)C=CCN6CC[C@]43[C@@H]65)C2)C1 [Vincristine] | 0.01 µg/mL (≈ 0.0121 µM) | 0.02 µg/mL (≈ 0.0242 µM) | – | 0.1 µg/mL (≈ 0.121 µM) | 0.02 µg/mL (≈ 0.0242 µM) | 0.06 µg/mL (≈ 0.0727 µM) | 0.4 µg/mL (≈ 0.485 µM) | 0.01 µg/mL (≈ 0.0121 µM) | 0.02 µg/mL (≈ 0.0242 µM) | 0.05 µg/mL (≈ 0.0606 µM) | – | – | – | – | – | – | – | – |
| CCc1c2c(nc3ccc(OC(=O)N4CCC(N5CCCCC5)CC4)cc13)-c1cc3c(c(=O)n1C2)COC(=O)[C@]3(O)CC [irinotican] | – | – | – | – | – | – | – | – | – | – | 0% | 50% | – | – | – | – | – | – |
| Mithramycin A | – | – | 0.09 µg/mL | 0.05 µg/mL | – | 0.04 µg/mL | – | 0.09 µg/mL | – | – | – | – | 0.3 µg/mL | 0.06 µg/mL | 1.5 µg/mL | 0.2 µg/mL | 1.2 µg/mL | 0.2 µg/mL |
